Test systems include U-251; 786-0; SNB-75; SNB-19; NCI-H460; RPMI-8226; SF-539; UO-31; HCT-15; HL-60; MCF7; RXF 393; NCI-H522; SK-MEL-5; CCRF-CEM; SR; MDA-N; BT-549; Malme-3M.
Experiment in all cases: NCI-60 cell line screen, 48 h

Here are results for eleven compounds from ChEMBL document CHEMBL1201862, “PubChem BioAssay data set” (2004).

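These data come from cells grown in 96-well plates and exposed to compound for 48 hours at five concentrations. GI50 marks 50% less growth.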 Calls of active or inactive are those of the source. Rule as the data show it: active = GI50 up to about 1.1 µM and inactive = higher.

Consider `CN1CCN(c2ccc3nc(C4=C(O)C(=O)c5c(nc(CCl)n5C)C4=O)[nH]c3n2)CC1`, for which the GI50 in the assay on U-251 was 8.77 µM (inactive); with 786-0, 8.61 µM (inactive); in the assay on SNB-75, 3.72 µM (inactive); in the assay on SNB-19, 8.95 µM (inactive); in the assay on NCI-H460 it was 20.2 µM (inactive); in the assay on RPMI-8226, 26 µM (inactive). For the same compound, the GI50 in the assay on SF-539 is > 50 µM (inactive); with UO-31 it was 2.47 µM (inactive); in the assay with HCT-15, 38 µM; in the assay with HL-60 it was > 50 µM (inactive); in the assay on MCF7 it was 8.89 µM (inactive); in the assay with RXF 393, 2.73 µM (inactive). Further, the GI50 was 1.56 µM (inactive) in the assay on NCI-H522; 24.2 µM (inactive) with SK-MEL-5; > 50 µM (inactive) in the assay on CCRF-CEM; 31.8 µM (inactive) with SR; 9.75 µM (inactive) in the assay on MDA-N; 9.79 µM (inactive) in the assay with BT-549. For the same compound, the GI50 in the assay with Malme-3M was 3.66 µM (inactive).

With `CCN(CC)C1C(=O)NC1C#Cc1ccccc1` (centres undefined), the GI50 is > 100 µM (inactive) with U-251; > 100 µM (inactive) in the assay with 786-0; > 100 µM (inactive) in the assay with SNB-75; > 100 µM (inactive) in the assay on SNB-19; > 100 µM (inactive) in the assay with NCI-H460; 76.7 µM (inactive) with RPMI-8226. Further, the GI50 in the assay on SF-539 is > 100 µM (inactive); in the assay on UO-31, > 100 µM (inactive); in the assay with HCT-15 it was 96.6 µM; with HL-60, 36.6 µM (inactive); in the assay with MCF7, 49.2 µM (inactive); in the assay on RXF 393, > 100 µM (inactive). Besides, the GI50 with NCI-H522 is 25 µM (inactive); in the assay on SK-MEL-5 it was 26.4 µM (inactive); with CCRF-CEM, 32 µM (inactive); in the assay with SR, 32 µM (inactive); with MDA-N, 57.3 µM (inactive); with BT-549 it was 61.9 µM (inactive). Besides, the GI50 with Malme-3M is 98.4 µM (inactive).

On to `Cc1ccc(N2C(=O)CC(=O)N(NC(=O)C(C)Oc3ccccc3C)C2=S)cc1` (centres undefined), for which the GI50 in the assay on U-251, with 786-0, in the assay with SNB-75, in the assay on SNB-19, in the assay with NCI-H460 and in the assay with RPMI-8226 was > 100 µM (inactive) throughout. Moreover, the GI50 with SF-539 was > 100 µM (inactive); in the assay on UO-31 it was > 100 µM (inactive); in the assay on HCT-15, above 100 µM; with HL-60 it was > 100 µM (inactive); with MCF7, > 100 µM (inactive); in the assay on RXF 393, > 100 µM (inactive). Also, the GI50 was > 100 µM (inactive) in the assay on NCI-H522; > 100 µM (inactive) with SK-MEL-5; 1.6 µM (inactive) in the assay on CCRF-CEM; 57.1 µM (inactive) with SR; 94.8 µM (inactive) in the assay with MDA-N; > 100 µM (inactive) in the assay with BT-549. Moreover, the GI50 in the assay on Malme-3M is > 100 µM (inactive).

In the case of `N#Cc1c(NC(=S)Nc2ccc(Cl)cc2)sc2c1CCN(N1CCc3c(sc(NC(=S)Nc4ccc(Cl)cc4)c3C#N)C1)C2`, the GI50 in the assay with U-251 was 29.2 µM (inactive); in the assay with 786-0, 21 µM (inactive); in the assay on SNB-75 it was 69 µM (inactive); in the assay on SNB-19 it was 64 µM (inactive); in the assay on NCI-H460, 32.4 µM (inactive); with RPMI-8226, > 100 µM (inactive). For the same compound, the GI50 is 16.8 µM (inactive) with SF-539; 14.9 µM (inactive) in the assay with UO-31; 24 µM in the assay on HCT-15; 30.2 µM (inactive) in the assay on HL-60; 37.2 µM (inactive) in the assay with MCF7; 18.3 µM (inactive) in the assay on RXF 393. The GI50 with NCI-H522 is 18.2 µM (inactive); in the assay on SK-MEL-5, 10.5 µM (inactive); in the assay with CCRF-CEM, 33 µM (inactive); in the assay with SR it was > 100 µM (inactive); in the assay on MDA-N, 28.7 µM (inactive); with BT-549, 36.6 µM (inactive). For the same compound, the GI50 in the assay with Malme-3M is 55.2 µM (inactive).

`C(=C/c1nnnn1-c1ccccc1)/Nc1ccccc1`: the GI50 was 27.9 µM (inactive) with U-251; 39.2 µM (inactive) with 786-0; 27.5 µM (inactive) in the assay on SNB-75; 26.7 µM (inactive) with SNB-19; 49.8 µM (inactive) in the assay with NCI-H460; 31 µM (inactive) in the assay on RPMI-8226. For the same compound, the GI50 in the assay on SF-539 was 23.3 µM (inactive); in the assay with UO-31, 20.6 µM (inactive); in the assay on HCT-15, 21.5 µM; with HL-60, 41.2 µM (inactive); with MCF7, 19.3 µM (inactive); with RXF 393, 53 µM (inactive). The GI50 in the assay with NCI-H522 was 20.8 µM (inactive); in the assay with SK-MEL-5, 14.5 µM (inactive); in the assay on CCRF-CEM, 25.5 µM (inactive); in the assay on SR, > 10 µM (inactive); with MDA-N, 22 µM (inactive); in the assay on BT-549, 17.4 µM (inactive). For the same compound, in the assay with Malme-3M, the GI50 was 31.4 µM (inactive).

`COc1ccc2c(c1)-c1c(c3ccccc3n1CCN1CCCCC1)CC2`: the GI50 with U-251 was 19.5 µM (inactive); in the assay on 786-0 it was 16.9 µM (inactive); in the assay on SNB-75, 14.8 µM (inactive); with SNB-19 it was 23.7 µM (inactive); in the assay with NCI-H460, 16.6 µM (inactive); with RPMI-8226 it was 11.3 µM (inactive). In addition, the GI50 with SF-539 is 6.37 µM (inactive); in the assay on UO-31, 12.6 µM (inactive); in the assay on HCT-15, 13.3 µM; in the assay with HL-60, 2.63 µM (inactive); in the assay on MCF7, 7.24 µM (inactive); in the assay on RXF 393, 1.57 µM (inactive). Besides, the GI50 with NCI-H522 was 14.6 µM (inactive); with SK-MEL-5, 14.6 µM (inactive); in the assay on CCRF-CEM it was 19.5 µM (inactive); with SR it was 6.64 µM (inactive); in the assay with MDA-N, 23.7 µM (inactive); in the assay with BT-549, 23.1 µM (inactive). The GI50 with Malme-3M is 23.4 µM (inactive).

In the case of `CC(C)OC(=O)c1ccc(CCC2=CC(=O)C=CC2=O)cc1`, the GI50 in the assay on U-251 is 15.6 µM (inactive); with 786-0, 4.22 µM (inactive); with SNB-75, 22.5 µM (inactive); in the assay on SNB-19, 21.6 µM (inactive); in the assay with NCI-H460, 21.8 µM (inactive); in the assay on RPMI-8226 it was 2.79 µM (inactive). Moreover, the GI50 with SF-539 was 5.45 µM (inactive); with UO-31 it was 4.5 µM (inactive); in the assay on HCT-15 it was 8.81 µM; in the assay on HL-60 it was 0.773 µM (active); in the assay with MCF7, 15.5 µM (inactive); in the assay with RXF 393, 11.8 µM (inactive). The GI50 in the assay with NCI-H522 was 1.9 µM (inactive); in the assay with SK-MEL-5 it was 15 µM (inactive); in the assay with CCRF-CEM, 0.697 µM (active); in the assay on SR, 2.56 µM (inactive); with MDA-N, 10.4 µM (inactive); with BT-549, 5.25 µM (inactive). For the same compound, in the assay on Malme-3M, the GI50 was 6.92 µM (inactive).

As for `CC(CCC(=O)O)(c1cc(Br)c(O)c(Br)c1)c1cc(Br)c(O)c(Br)c1`, the GI50 with U-251 was 48.9 µM (inactive); in the assay on 786-0 it was > 100 µM (inactive); in the assay on SNB-75, 55.7 µM (inactive); with SNB-19, 57.9 µM (inactive); in the assay on NCI-H460, 40.6 µM (inactive); in the assay with RPMI-8226 it was 48.8 µM (inactive). Moreover, the GI50 in the assay with SF-539 is 50.4 µM (inactive); in the assay with UO-31, 66.7 µM (inactive); in the assay on HCT-15, 54.3 µM; in the assay with HL-60 it was 21.4 µM (inactive); with MCF7, 70.6 µM (inactive); with RXF 393, 54.8 µM (inactive). Moreover, the GI50 in the assay on NCI-H522 was 39.6 µM (inactive); in the assay with SK-MEL-5, 29.4 µM (inactive); with CCRF-CEM, < 0.01 µM (active); in the assay with SR, 39.1 µM (inactive); with MDA-N it was 70 µM (inactive); with BT-549 it was 38.4 µM (inactive). For the same compound, the GI50 in the assay with Malme-3M was 58.9 µM (inactive).

Consider `Cc1nnc2cc(C(=O)O)c3ccccc3n2c1=O`, for which the GI50 in the assay on U-251 is > 10 µM (inactive); in the assay on 786-0, > 10 µM (inactive); in the assay on SNB-75, 2.55 µM (inactive); with SNB-19, > 10 µM (inactive); with NCI-H460, > 10 µM (inactive); with RPMI-8226, > 10 µM (inactive). Further, the GI50 with SF-539 is > 10 µM (inactive); with UO-31, > 10 µM (inactive); in the assay with HCT-15 it was above 10 µM; in the assay with HL-60 it was > 10 µM (inactive); in the assay on MCF7 it was > 10 µM (inactive); with RXF 393, > 10 µM (inactive). Also, the GI50 in the assay with NCI-H522, with SK-MEL-5, in the assay on CCRF-CEM, with SR, in the assay with MDA-N and in the assay with BT-549 was > 10 µM (inactive) each time. The GI50 with Malme-3M is > 10 µM (inactive).

`N#Cc1cc2c(n(C3OC(CO)C(O)C(O)C3O)c1=S)CCCCCC2` (centres undefined): the GI50 with U-251, in the assay with 786-0, in the assay on SNB-75, with SNB-19, with NCI-H460 and in the assay with RPMI-8226 was > 100 µM (inactive) throughout. Moreover, the GI50 in the assay on SF-539 is > 100 µM (inactive); with UO-31 it was > 100 µM (inactive); in the assay on HCT-15, above 100 µM; in the assay on HL-60, > 100 µM (inactive); in the assay on MCF7, > 100 µM (inactive); in the assay with RXF 393, > 100 µM (inactive). The GI50 in the assay with NCI-H522, in the assay on SK-MEL-5, with CCRF-CEM, in the assay on SR, with MDA-N and in the assay with BT-549 was > 100 µM (inactive) each time. Further, the GI50 in the assay with Malme-3M is > 100 µM (inactive).

As for `NCCNc1nc(N2CCCC2)c2nc(Cl)c(NCc3ccccc3)nc2n1`, the GI50 with U-251 was 1.63 µM (inactive); with 786-0 it was 1.77 µM (inactive); in the assay on SNB-75, 1.72 µM (inactive); in the assay on SNB-19 it was 1.83 µM (inactive); in the assay on NCI-H460, 1.85 µM (inactive); in the assay on RPMI-8226, 1.88 µM (inactive). Moreover, the GI50 is 1.96 µM (inactive) with SF-539; 1.73 µM (inactive) with UO-31; 1.95 µM in the assay with HCT-15; 1.97 µM (inactive) in the assay with HL-60; 1.73 µM (inactive) in the assay on MCF7; 1.4 µM (inactive) in the assay with RXF 393. For the same compound, the GI50 in the assay on NCI-H522 is 1.67 µM (inactive); in the assay on SK-MEL-5, 1.75 µM (inactive); in the assay on CCRF-CEM, 2.42 µM (inactive); in the assay with SR, 1.57 µM (inactive); in the assay on MDA-N, 1.67 µM (inactive); in the assay with BT-549, 1.98 µM (inactive). Further, the GI50 in the assay on Malme-3M was 2.07 µM (inactive).
